From DBAASP
≈ marks a conversion by molar mass, not a printed value. One block for each compound: values may come before it.

Assays:
Assay in all cases: ≥ marks a high value that may be exact or a test limit, other limits are often not marked, values filed in µg/mL are converted to µM
[1] = system: Bacillus subtilis PS832
[2] = system: Escherichia coli DL7
[3] = system: Klebsiella aerogenes ATCC 13048
[4] = system: Staphylococcus epidermidis ATCC 12228
[5] = system: Cronobacter muytjensii ATCC 51329
[6] = system: Cronobacter sakazakii ATCC BAA-894
[7] = system: Cronobacter sakazakii DPC 6440
[8] = system: Cronobacter sakazakii DSM 4485
[9] = system: Escherichia coli NCIMB 11843
[10] = system: Klebsiella pneumoniae NCIMB 13218
[11] = system: Pseudomonas fluorescens NCIMB 9046
[12] = system: Salmonella enterica subsp. enterica serovar Typhimurium LT2
[13] = system: Staphylococcus aureus NCTC 8325-4
[14] = system: Staphylococcus aureus Newman
[15] = system: Staphylococcus aureus RF122
[16] = system: Staphylococcus aureus RN4220
[17] = system: Staphylococcus aureus SA113
[18] = system: Candida albicans ATCC 90028
[19] = system: Candida krusei ATCC 6258
[20] = system: Candida parapsilosis ATCC 22019
[21] = system: Cryptococcus neoformans ATCC 90012
[22] = system: Escherichia coli ATCC 25922
[23] = system: Pseudomonas aeruginosa ATCC 27853
[24] = system: Staphylococcus aureus ATCC 25923
[25] = system: Bacillus subtilis CMCC 63501
[26] = system: Enterococcus faecalis ATCC 29212
[27] = system: Salmonella enterica subsp. enterica serovar Pullorum C79-13
[28] = system: Salmonella enterica subsp. enterica serovar Typhimurium C77-31
[29] = system: Staphylococcus aureus ATCC 29213
[30] = system: Candida glabrata 090902
[31] = system: Enterobacter cloacae CGMCC 1.57
[32] = system: Enterococcus faecalis 981
[33] = system: Enterococcus faecium 091299
[34] = system: Klebsiella pneumoniae 08040724
[35] = system: Nocardia asteroides 201118
[36] = system: Psychrobacter faecalis X29
[37] = system: Acinetobacter baumannii ABA1
[38] = system: Acinetobacter baumannii ABA2
[39] = system: Acinetobacter baumannii
[40] = system: Escherichia coli ECO1
[41] = system: Escherichia coli ECO2
[42] = system: Escherichia coli
[43] = system: Porphyromonas gingivalis ATCC 33277
[44] = system: Pseudomonas aeruginosa PAER10
[45] = system: Pseudomonas aeruginosa PAER1
[46] = system: Pseudomonas aeruginosa PAER4
[47] = system: Pseudomonas aeruginosa PAER7
[48] = system: Pseudomonas aeruginosa PAO1
[49] = system: Pseudomonas aeruginosa
[50] = system: Salmonella enterica serovar Typhimurium
[51] = system: Staphylococcus aureus S5375
[52] = system: Staphylococcus aureus SAU2
[53] = system: Staphylococcus aureus SAU5
[54] = system: Staphylococcus aureus SAU7
[55] = system: Staphylococcus aureus

Structure (SMILES): CC[C@H](C)[C@H](NC(=O)[C@H](CCCN=C(N)N)NC(=O)[C@H](CCCCN)NC(=O)[C@H](CC(C)C)NC(=O)[C@H](CC(C)C)NC(=O)CNC(=O)[C@H](Cc1cnc[nH]1)NC(=O)CNC(=O)CN)C(=O)N[C@@H](CCCCN)C(=O)N[C@H](C(=O)N[C@@H](CC(C)C)C(=O)N[C@@H](CC(C)C)C(N)=O)[C@@H](C)O [GGHGLLKRIKTLL]
MIC [1]: 2 µM (≈ 2.81 µg/mL) | MIC [2]: 4 µM (≈ 5.62 µg/mL) | MIC [3]: ≥ 32 µM | MIC [4]: 8 µM (≈ 11.2 µg/mL)

Structure (SMILES): NC(=O)[C@H](Cc1ccccc1)NC(=O)[C@H](CCCN=C(N)N)NC(=O)[C@H](CS)NC(=O)[C@H](Cc1ccccc1)NC(=O)[C@H](CCCN=C(N)N)NC(=O)[C@H](CCCN=C(N)N)NC(=O)[C@H](CCCN=C(N)N)NC(=O)[C@H](CS)NC(=O)[C@H](CCCN=C(N)N)NC(=O)[C@@H](N)Cc1ccccc1 [FRCRRRFCRF]
MIC [25]: 4 µM (≈ 5.78 µg/mL) | MIC [26]: 32 µM (≈ 46.3 µg/mL) | MIC [22]: 4 µM (≈ 5.78 µg/mL) | MIC [23]: > 128 µM | MIC [27]: 16 µM (≈ 23.1 µg/mL) | MIC [28]: ≥ 32 µM | MIC [29]: 32 µM (≈ 46.3 µg/mL) | MIC [4]: 16 µM (≈ 23.1 µg/mL)

Structure (SMILES): CC[C@H](C)[C@@H]1NC(=O)[C@H](CCCCN)NC(=O)[C@@H](NC(=O)[C@@H](NC(=O)[C@@H](NC(=O)[C@H](CCCCN)NC(=O)[C@@H]2CCCN2C(=O)[C@H](CC(C)C)NC(=O)[C@H](Cc2ccccc2)NC(=O)[C@H](CC(N)=O)NC(=O)[C@H](C)NC(=O)[C@H](C)NC(=O)[C@H](CC(C)C)NC(=O)CNC(=O)[C@H](C)NC(=O)[C@H](CC(C)C)NC(=O)[C@H](CCSC)NC(=O)[C@@H]2CCCN2C(=O)[C@H](CC(C)C)NC(=O)[C@@H](N)Cc2ccccc2)[C@@H](C)CC)[C@@H](C)CC)CSSC[C@@H](C(=O)O)NC(=O)[C@H](CCCCN)NC(=O)[C@H](CCCCN)NC(=O)[C@H]([C@@H](C)O)NC1=O [FLPMLAGLAANFLPKIICKITKKC]
MIC [30]: 6.3 µM (≈ 16.6 µg/mL) | MIC [31]: ≥ 100 µM | MIC [32]: 6.3 µM (≈ 16.6 µg/mL) | MIC [33]: ≥ 50 µM | MIC [22]: 100 µM (≈ 263 µg/mL) | MIC [34]: ≥ 100 µM | MIC [35]: 3.1 µM (≈ 8.16 µg/mL) | MIC [36]: 12.5 µM (≈ 32.9 µg/mL) | MIC [24]: 6.3 µM (≈ 16.6 µg/mL)

Now from value to compound:

MIC [5]: ≥ 1250 µM | MIC [6]: ≥ 1250 µM | MIC [7]: ≥ 1250 µM | MIC [8]: ≥ 1250 µM | MIC [9]: ≥ 1250 µM | MIC [10]: ≥ 1250 µM | MIC [11]: ≥ 1250 µM | MIC [12]: ≥ 1250 µM | MIC [13]: ≥ 1250 µM | MIC [14]: ≥ 1250 µM | MIC [15]: ≥ 1250 µM | MIC [16]: ≥ 1250 µM | MIC [17]: ≥ 625 µM
Structure (SMILES): CC(C)C[C@H](NC(=O)[C@H](CCCN=C(N)N)NC(=O)[C@H](C)NC(=O)[C@H](CC(N)=O)NC(=O)[C@H](CCC(=O)O)NC(=O)[C@H](CC(N)=O)NC(=O)[C@H](CC(C)C)NC(=O)[C@@H](N)C(C)C)C(=O)O [VLNENARL]

MIC [18]: 8 µM (≈ 18.3 µg/mL) | MIC [19]: 8 µM (≈ 18.3 µg/mL) | MIC [20]: 4 µM (≈ 9.16 µg/mL) | MIC [21]: 8 µM (≈ 18.3 µg/mL) | MIC [22]: 4 µM (≈ 9.16 µg/mL) | MIC [23]: 8 µM (≈ 18.3 µg/mL) | MIC [24]: 1 µM (≈ 2.29 µg/mL)
Structure (SMILES): CC[C@H](C)[C@H](NC(=O)[C@H](Cc1ccccc1)NC(=O)[C@H](CC(N)=O)NC(=O)[C@H](CCCCN)NC(=O)[C@H](C)NC(=O)[C@@H](NC(=O)[C@H](CC(N)=O)NC(=O)[C@H](Cc1ccccc1)NC(=O)[C@H](C)NC(=O)[C@H](C)NC(=O)[C@H](CCCCN)NC(=O)CNC(=O)[C@@H](NC(=O)[C@H](CCCCN)NC(=O)[C@H](CCCCN)NC(=O)[C@H](C)NC(=O)[C@@H](NC(=O)[C@H](CC(=O)O)NC(=O)[C@H](CC(C)C)NC(=O)[C@H](Cc1c[nH]c2ccccc12)NC(=O)CN)C(C)C)[C@@H](C)CC)C(C)C)C(N)=O [GWLDVAKKIGKAAFNVAKNFI]

MIC [37]: 5.25 µM (≈ 8 µg/mL) | MIC [38]: 7.42 µM (≈ 11.3 µg/mL) | MIC [39]: 10.5 µM (≈ 16 µg/mL) | MIC [22]: 10.5 µM (≈ 16 µg/mL) | MIC [40]: 3.71 µM (≈ 5.66 µg/mL) | MIC [41]: 3.71 µM (≈ 5.66 µg/mL) | MIC [42]: 42 µM (≈ 64 µg/mL) | MIC [43]: 5.25 µM (≈ 8 µg/mL) | MIC [44]: 2.62 µM (≈ 4 µg/mL) | MIC [45]: 3.71 µM (≈ 5.66 µg/mL) | MIC [46]: 10.5 µM (≈ 16 µg/mL) | MIC [47]: 21 µM (≈ 32 µg/mL) | MIC [48]: 10.5 µM (≈ 16 µg/mL) | MIC [49]: 10.5 µM (≈ 16 µg/mL) | MIC [50]: 5.25 µM (≈ 8 µg/mL) | MIC [24]: 10.5 µM (≈ 16 µg/mL) | MIC [51]: 14.8 µM (≈ 22.6 µg/mL) | MIC [52]: 21 µM (≈ 32 µg/mL) | MIC [53]: 21 µM (≈ 32 µg/mL) | MIC [54]: 21 µM (≈ 32 µg/mL) | MIC [55]: 14.8 µM (≈ 22.6 µg/mL)
Structure (SMILES): CC[C@H](C)[C@H](NC(=O)[C@H](CCCN=C(N)N)NC(=O)[C@H](Cc1c[nH]c2ccccc12)NC(=O)[C@H](CCC(N)=O)NC(=O)[C@@H](N)C(C)C)C(=O)N[C@@H](CCCN=C(N)N)C(=O)N[C@H](C(=O)N[C@@H](C)C(=O)N[C@H](C(=O)N[C@H](C(=O)N[C@@H](CCCN=C(N)N)C(=O)N[C@@H](CCCCN)C(=O)O)[C@@H](C)CC)C(C)C)C(C)C [VQWRIRVAVIRK]
